Results on one substance are retold here after patent US20090263410A1, “USE OF TGF-B1 INHIBITOR PEPTIDES IN THE PREPARATION OF AN IMMUNE RESPONSE MODULATING AGENT” (Proyecto De Biomedicina Cima, S.L., priority 2005, published 2009).

One experiment relates to RAd-LacZ. In words: Induction of anti-RAd LacZ antibodies (ELISA) after immunization with heat-inactivated adenovirus. In kind it is in vivo, BALB/c mice. Here is the method:
To analyse the immunomodulating effect of peptide p144 on the humoral response, female BALB/c mice (Harlan, Barcelona) were used, of between 6 and 8 weeks old. For the induction of specific antibodies, recombinant adenovirus (RAd-LacZ) inactivated by heat in a bath at 100° C. for 10 minutes was inoculated.
Three mice were immunized per group, by the intraperitoneal of a mixture of 200 μl which contained 1×10^8 pfu of the inactivated RAd-LacZ adenovirus, physiological serum (PS) or with […] of peptide p144, all emulsified in Freund's complete adjuvant (FCA) in a 1:1 volumetric ratio as indicated in table M4. Thirty days after the first immunization, the animals were reimmunized with the same mixture, but emulsified in Freund's incomplete adjuvant (FIA). Blood samples were taken from the retroorbital plexus on days 15 and 45 to quantify the anti-adenovirus antibodies generated in each animal.
In order to study the possible induction of antigen intolerance in the mice treated with p144, on day 50 after the I^st injection, the mice were inoculated intravenously with 4×10^8 pfu of active RAd-LacZ in 100 μl of RPMI-1640, including a new group of mice (cont iv), which had only received the intravenous dose of active LacZ adenovirus. Blood samples were taken after 7 days in all groups. Next, the animals were sacrificed to include liver samples in OCT® (Tissue-Tek®, SAKURA, the Netherlands) to the subsequent evaluation of LacZ expression in the liver.
The detection of antibodies in serum against RAd-LacZ was performed by ELISA assays using Maxisorp® flat-bottomed 96-well plates (Nunc, Roskilde, Denmark), based on the streptavidin-biotin system using 2,2′-azino-bis-3-ethylbenzthiazoline-6-sulphonic acid (ABTS) as developer. The plates were incubated throughout the night at 4° C. with 50 μl per well of a solution of 75 μl of RAd-LacZ 10^10 pfu/ml in 10 ml 0.1 M Na2CO3 (pH=10.5). […] 100 μl per well were added and after one hour the plate was read at 405 nm in a Multiskan Plus MKII reader (Labsystem, Helsinki, Finland).
(An ELISA detects its analyte on a solid surface through an enzyme-linked reagent.)

In a further experiment the target is T1, TGF-β1 (Mus musculus, UniProt P04202).
T1 construct: an in vivo system wherein TGF-β1 acts as supposed antagonist of the cytokines induced in this model; from tissue; host or cells: living BALB/c mice (Harlan), endogenous TGF-β1; read-out in serum
In words: In vivo activity of recombinant adenovirus for mouse IL-12: IFN-γ and NO levels in serum. Details: species or system BALB/c mice. From the text:
This example studies the effect of peptide p144 in an in vivo system wherein TGF-β1 acts as supposed antagonist of the cytokines induced in this model. The production of mouse IL-12 by the expression of a transgen included in the recombinant adenovirus, induces an inflammatory state through the induction of a cascade of factors, including IFN-γ and nitric oxide. TGF-β1 has been described as an inhibitor of the production and biological action of IL-12, IFN-γ and NO (Pardoux C. et al., 1999; Schini V. B. et al., 1992). […]
Blood samples were extracted from both groups on days 6 and 9 after immunization for the subsequent quantification of IFN-γ and NO levels in serum.
The quantity of IFN-γ was measured by a commercial ELISA (Mouse IFN-γ Duoset ELISA Development System, Genzyme, Cambridge and OPTEIA Mouse IFN-γ Ser, Pharmingen, San Diego, USA) in accordance with the manufacturer's instructions. The results were expressed as pg/ml of IFN-γ and using a standard curve of known quantities of IFN-γ. […]
NO2* emission is in the red and infrared region of the light spectrum and is detected by a red-sensitive photomultiplier tube. This signal is quantified and the data obtained are collected and processed by a computer.

T1 sequence (P04202 279-390 limits assumed): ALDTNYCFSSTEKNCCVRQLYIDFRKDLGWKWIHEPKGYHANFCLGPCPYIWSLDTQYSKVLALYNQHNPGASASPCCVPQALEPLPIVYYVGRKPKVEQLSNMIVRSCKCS

As to “p144: peptide inhibiting TGF-β1 whose amino acid sequence corresponds to SEQ ID NO: 1 (TSLDASIIWAMMQN; Synthetic Construct from human TGB-Beta1 type III receptor.Domain730-743)”, the “antibody titer after intravenous infection with active RAd LacZ” value with RAd-LacZ (7 days after 4×10^8 pfu RAd LacZact i.v., no p144 at challenge, versus group immunized without p144) is listed as “approximately equalled”. Besides, in the experiment with RAd-LacZ (day 15, RAd LacZinact in presence or absence of p144, ELISA), the “anti-RAd LacZ antibody production after first immunization” value is “no quantifiable effect”. In the experiment on RAd-LacZ (p144 50 μg in immunization mixture, versus inactivated RAd LacZ only), the “antibody titer against RAd LacZ after second immunization” value was “clearly lower”. The “serum levels of IFN-γ” value with TGF-β1 (RAd IL-12 1×10^8 pfu i.p. plus p144 daily 100 μg for 5 days, versus RAd IL-12 alone) is on record as “increases”. For the same substance, the NO serum levels entry with TGF-β1 (day 6, RAd IL-12 1×10^8 pfu i.p. plus p144, versus RAd IL-12 alone) is listed as “greater level”.
